Reference: US11207421B2, “Nanostructures comprising cobalt porphyrin-phospholipid conjugates and polyhistidine-tags” (The Research Foundation for The State University of New York, priority 2015, dated 2021)
Where a SMILES comes first, the peptide text is derived from it. Where no end group is shown, it is not given here. The star is where a group is joined. 5FAM = O=C1OC2(c3ccc(O)cc3Oc3cc(O)ccc32)c2ccc(C(=O)*)cc21; Palmitoyl = CCCCCCCCCCCCCCCC(=O)*

Experiments:
CoPoP liposomes = experiment: Effect of His-tag length on peptide binding to CoPoP liposomes; conditions: FAM-labeled peptides with varying His-tag length
Procedure: 1 μg of fluorescent reporter protein was incubated with 20 μg of liposomes in 200 μL PBS in a 96 well plate. Fluorescence in the FRET channel (ex: 430 nm, em: 525 nm) was measured periodically with a fluorescence microplate reader (Tecan Infinite II). Data were normalized to the FRET signal in the protein without addition of liposomes. EMSA experiments were performed with 2.5 μg protein incubated with 50 μg liposomes followed by electrophoresis in a 0.75% agarose gel with 50 V applied for 90 minutes and imaging with an IVIS Lumina II system with the indicated excitation and emission filters. For serum stability test, […] in 40u l PBS. After […], 40u l FBS was added and incubated for another 8 h (hours). For imidazole displacement experiments, 1 μg of reporter protein was bound to 20 μg liposomes in PBS. Imidazole was then titrated and binding was assessed with fluorescence. For serum stability, 1 μg of reporter protein was bound to 20 μg liposomes in 100 μL PBS and then an equal volume of fetal bovine serum (VWR #82013-602) was added and binding was monitored with fluorescence. Peptide binding was assessed with RGD-His FAM fluorophore quenching following incubation of 500 ng peptide with 20 μg liposomes.
The effect of His-tag length on peptide binding to CoPoP liposome was examined. A series of N-terminus FAM-labeled peptides was synthesized with varying lengths of His-tag attached to the C-terminus.

[1] = format: physicochemical; conditions: not told
Procedure: PoP-liposomes were formulated at a 1 mg scale. After dissolving lipids in chloroform in a test tube, the solvent was evaporated and the film was further dried under vacuum overnight. Lipids were rehydrated with 1 mL of phosphate buffered saline (PBS), sonicated, subjected to 10 freeze-thaw cycles and then extruded through 100 nm polycarbonate membranes (VWR #28157-790) with a handheld extruder (Avanti #610000). For protein and peptide binding analysis, liposomes were formed with 10 mol % PoP along with 85 mol % DOPC (Avanti #850375P), and 5 mol % PEG-lipid (Avanti #880120P). […] Liposomes incorporating free Co-porphyrin included 10 molar % Co-pyropheophorbide with 85 mol % DOPC and 5 mol % PEG-lipid. Co-NTA-liposome was prepared using liposomes containing 10 mol % dioleoyl-gycero-NTA (Avanti #790528P). Liposomes were incubated with 20 mg/mL cobalt (II) chloride for 2 hours and then dialized in PBS. Sulforhodamine B loading liposomes contained 10 mol % PoP, 35 mol % cholesterol (Avanti #700000P), 55 mol % DOPC and PEG-lipid as indicated. […] For bilayer integrity and quantitative cell binding studies, 50 mM dye was used, whereas microscopy studies used 10 mM dye.
Given the binding efficacy of the His-tagged peptide to liposomes, bilayer integrity was assessed to determine whether peptide binding induces membrane destabilization. […]

U87 glioblastoma cells = experiment: Targeted uptake of sulforhodamine B-loaded liposomes; format: cell-based; conditions: excess free RGD peptide
Procedure: U-87 and MCF-7 cell lines were obtained from ATCC and cultured according to vendor protocol. 2×10^4 cells were seeded overnight in 96-well-plate wells. 500 ng RGD-His peptide was bound with 20 μg of sulforhodamine B loaded liposomes and liposomes were incubated with cells for 2 h. Media was removed, cells were washed with PBS 3 times and then cells and liposomes were lysed with a 1% Triton X-100 solution. Liposomal uptake was assessed by measuring the fluorescence of sulforhodamine B.
For confocal imaging, 10^4 cells were seeded overnight in a Nunc chamber slide (Nunc #155411) in DMEM with 10% fetal bovine serum (FBS). 20 μg of liposomes were added to the serum containing media and incubated for 2 h. Media was removed and the cells were washed with PBS 3 times. Fresh media was added and cells were imaged with microscopy using a Zeiss LSM 710 confocal fluorescence microscope. Gold imaging was carried out in the same way but 633 nm light was used for both excitation and emission for back scatter imaging. […]
Next, RGD-decorated liposomes were assessed whether they could bind to their molecular targets with the established cell-line pair of U87 glioblastoma cells (RGD-binding) and MCF7 breast cancer cells (RGD non-binding). […] Liposomal uptake was assessed by examining the fluorescence in the cells following washing and lysis (to remove any effects of cargo self-quenching). […]

U87 cells [2] = experiment: Uptake of coated gold nanospheres (confocal reflectance/backscatter microscopy); format: cell-based; conditions: free RGD
Procedure: For gold coating, 60 nm citrate-stabilized gold nanospheres (Ted Pella #15709-20) were used to hydrate a 1 mg lipid film composed of 45 mol % distearoyl phosphocholine (Avanti #850365P), 45 mol % distearoyl phosphoglycerol (Avanti #840465X) and 10 mol % PoP. Following brief vortexing and sonication, the samples were repeatedly centrifuged at 1500 relative centrifugal force (rcf) for 15 min. The supernatant was discarded and the pellet was resuspended and re-centrifuged 2 more times. PoP gold was resuspended in water for further analysis.
For confocal imaging, 10^4 cells were seeded overnight in a Nunc chamber slide (Nunc #155411) in DMEM with 10% fetal bovine serum (FBS). 20 μg of liposomes were added to the serum containing media and incubated for 2 h. Media was removed and the cells were washed with PBS 3 times. Fresh media was added and cells were imaged with microscopy using a Zeiss LSM 710 confocal fluorescence microscope. Gold imaging was carried out in the same way but 633 nm light was used for both excitation and emission for back scatter imaging. After peptide binding, gold was centrifuged to remove any unbound RGD peptide.
Liposomes represent only a subset of all the types of nanomaterials used in biomedical applications. CoPoP was assessed as a generalized surface coating with selective adhesion for His-tags. […]

U87 cells [3] = experiment: Uptake of CoPoP liposomes bound to his-tagged cell penetrating peptides; format: cell-based; conditions: 1 hour incubation; [2:5:30:63] [PoP:CoP:CHOL:DMPC]
Description: In this example, CoPoP liposomes were targeted to cells via his-tagged cell penetrating peptides. The following his-tagged cell penetrating peptides were obtained: […] (SEQ ID NO:13) (TAT peptide); […] (SEQ ID NO:14) (R8 peptide); […] (SEQ ID NO:15) (PEN peptide).

[4] = test system: murine RAW 264.7 macrophage cells; experiment: DY-490-OspA uptake by macrophage cells; format: cell-based; conditions: 2 hr incubation
Procedure: FIG. 24. Assessing epitope availability and stability of antigen-functionalized nanoliposomes. (A) Stability of nanoliposome-antigen particles in 20% (v/v) human serum based on fluorescence quenching assay. (B) Immunoprecipitation of OspA-bound liposomes by OspA-specific monoclonal antibody LA-2. (C) DY-490-OspA uptake by murine RAW 264.7 macrophage cells following 2 hr incubation with indicated samples. Cytochalasin B was supplemented to medium 1 hr prior to incubation. Error bars represent standard deviations for n=3 experiments.
Practical utility of liposomes as antigen delivery vesicles is attributed from its enhanced uptake by antigen presenting cells. […] The macrophage selective uptake of PoP/PHAD liposomes in the mixed form further implicates that physical association of antigen to liposomes may be necessary for liposomal adjuvanticity. Co-delivery of surface-exposed antigen and immunostimulant to immune cells is an important facet of the CoPoP/PHAD liposome. Cellular uptake mechanism via phagocytosis is supported by the diminished uptake for both antigen and liposome in the presence of cytochalasin B.

his-tagged OspA = molecular target: T1, his-tagged OspA (Borreliella burgdorferi, UniProt P0CL66); experiment: OspA binding to CoPoP/PHAD liposomes (native PAGE, microBCA); parameters: species or system Borrelia burgdorferi; conditions: microBCA assay of supernatant after high speed centrifugation
T1 construct: made in house; host or cells: E. coli
T1 sequence (P0CL66 17-273): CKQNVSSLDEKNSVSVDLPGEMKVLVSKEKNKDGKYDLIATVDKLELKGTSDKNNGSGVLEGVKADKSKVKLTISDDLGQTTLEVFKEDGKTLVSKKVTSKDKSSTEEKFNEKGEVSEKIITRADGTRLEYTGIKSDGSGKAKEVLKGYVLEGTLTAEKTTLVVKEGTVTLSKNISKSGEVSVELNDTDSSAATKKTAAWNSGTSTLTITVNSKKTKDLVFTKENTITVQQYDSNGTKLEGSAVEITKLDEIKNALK
Procedure: FIG. 23. […] (D) Hydrodynamic diameter and polydispersity index of liposomes measured using dynamic light scattering. […] Acquisitions were made 3 hr after incubation of liposomes with protein. Error bars represent standard deviations for n=3 measurements.
Spontaneous formation of the proteoliposomes occurs via insertion of the histidine tag into the hydrophobic bilayer and subsequent coordination of the imidazole moiety to the metal center. Binding conditions for were evaluated using native electrophoresis, which allows physical separation of liposome-bound and free proteins due to the limiting pore size of the acrylamide gel. Observed optimum binding mass ratio of 4:1 of PHAD:OspA (FIG. 23A) is consistent with previous studies using the malaria antigen, Pfs25. […] It can be deduced that the initial phase of binding occurred at a fast rate based from the relative band intensities for time points, 0 and 15 min. At the particleization conditions, specific binding is estimated to be about 80% based from microBCA assay of the supernatant obtained from high speed centrifugation (FIG. 23C).

For “5-FAM-KKGGGG (SEQ ID NO: 5) (5FAM-KKGGGG) [0-His]”, the “binding t1/2” value (CoPoP liposomes) was “no peptide binding was observed”.
With “5-FAM-KKGGGGHH (SEQ ID NO: 6) (5FAM-KKGGGGHH) [2-His]” the “binding t1/2” value (CoPoP liposomes) was ~10 h.
For “5-FAM-KKGGGGHHHHHH (SEQ ID NO: 8) (5FAM-KKGGGGHHHHHH) [6-His]”, the “binding t1/2” value (CoPoP liposomes) was “less than one hour”.
With “5-FAM-KKGGGGHHHHHHHHHH (SEQ ID NO: 10) (5FAM-KKGGGGHHHHHHHHHH) [10-His]” the “binding t1/2” value (CoPoP liposomes) was 0.333 h.
For `CCCCCCCCCCCCCCCC(=O)NCCCC[C@H](NC(=O)CNC(=O)[C@H](CCCCN)NC(=O)[C@H](C)NC(=O)CNC(=O)[C@H](C)NC(=O)CNC(=O)[C@H](CCCCN)NC(=O)[C@@H]1CCCN1C(=O)[C@H](CO)NC(=O)[C@H](CC(=O)O)NC(=O)CNC(=O)[C@H](CCCNC(=N)N)NC(=O)CNC(=O)c1ccc2c(c1)C(=O)OC21c2ccc(O)cc2Oc2cc(O)ccc21)C(=O)O` [RGD-palm] (5FAM-GRGDSPKGAGAKGK(Palmitoyl)-OH; C-terminus assumed), the “membrane permeabilization by lipopeptide” value [1] was “permeabilization of cargo-loaded liposomes”.
For GRGDSPK (SEQ ID NO: 2) [Free RGD], the “inhibition of targeted liposome binding” value (U87 glioblastoma cells) was “Binding could be inhibited” and the “inhibition of gold nanoparticle binding” value (U87 cells [2]) was “inhibited the binding”.
In the case of “HHHHHHHGRKKRRQRRRPPQ (SEQ ID NO:13) (cell penetrating peptide) [TAT peptide]”, the “binding and uptake of peptide-bound CoPoP liposomes” value (U87 cells [3]) was “could bind and get uptaken”.
In the case of “HHHHHHHRQIKIWFQNRRMKWKK (SEQ ID NO:15) (cell penetrating peptide) [PEN peptide]”, the “binding and uptake of peptide-bound CoPoP liposomes” value (U87 cells [3]) was “could bind and get uptaken”.
With “HHHHHHHRRRRRRRR (SEQ ID NO:14) (cell penetrating peptide) [R8 peptide]” the “binding and uptake of peptide-bound CoPoP liposomes” value (U87 cells [3]) was “could bind and get uptaken”.
For “OspA: his-tagged OspA based on the B31 strain protein sequence without the lipid tail, free non-adjuvanted”, the antigen uptake [4] was “Minimal uptake”.
For “lysozyme: a non-histidine tagged protein”, the specific binding (his-tagged OspA) was “failed to bind”.
